Read-outs that look alike come from different tables or passages of the source.

The test system of the experiment is rat forebrain astrocytes in primary culture. In words: Astrocyte proliferation assay ([3H]-thymidine incorporation normalized to [35S]-methionine). The conditions noted are these: for effect of drug on the ability of N-CAM to inhibit astrocyte proliferation (in words): drug in the presence of N-CAM; for Drug Alone: means of triplicate (Table 5). The class given is cell-based. On the procedure:
Primary cultures of astrocytes were prepared from the forebrains of 4-5 day old neonatal rats. After decapitation and removal of the forebrains from the skull, the meninges were carefully peeled off, and forebrain tissue was triturated in sterile phosphate buffered saline (PBS) using firepolished pipettes. The resulting suspension of tissue fragments was incubated in Hank's balanced salt solution (Gibco BRL) with 2.5 mg/ml trypsin, 1 mM EDTA and 0.1 mg/ml DNase (Boehringer) at 37° C. for 15 minutes. […] The pellet was resuspended in serum free medium (SFM) consisting of Dulbecco's Modified Eagle Medium (D-MEM), 2 mM L-glutamine, 50 U/ml penicillin G sodium and 50 μg/ml streptomycin sulfate (all from Gibco BRL) supplemented by 10% (vol/vol) fetal bovine serum (FBS). The cells were transferred to a standard 100 mm tissue culture dish (Falcon) and incubated at 37° C. for 1-2 hours. After mild shaking, the supernatant containing unattached cells was transferred to a 100 mm collagen-coated dish. […] Cell samples were checked regularly for the expression of GFAP, a marker for astrocytes.
After cell attachment, the culture medium was exchanged for SFM. In antisense experiments, oligonucleotides were added at the same time (T=0). […] After another 12 hours (at T=60), [^3 H]-thymidine (New England Nuclear, 20 Ci/mmol) was added (0.38 μM, 10 μCi/ml). Following an additional 12 hours (T=72), the wells were drained, counts precipitated by ice-cold […] trichloroacetic acid, and the plates left to dry. Counts were solubilized overnight by adding 100 μl 1 N KOH to each well, neutralized with 100 μl 1 N HCl, transferred to liquid scintillation vials and counted in 3 ml of Beckman Ready Safe liquid scintillation cocktail on a Packard 1600 TR counter. […] In this paper, proliferation is expressed as [^3 H]-thymidine incorporation normalized to [35]-methionine incorporation and calculated as [^3 H] dpm/ [35] dpm.

For `CCCCC/C=C\C/C=C\C/C=C\C/C=C\CCCC(=O)O` [Arachidonic Acid, arachidonic acid], the “effect of drug on the ability of N-CAM to inhibit astrocyte proliferation (in words)” value is “had no effect on the ability of N-CAM to inhibit astrocyte proliferation”. Also, under “drug 10 μM plus N-CAM 2 μg/ml”, the “[3H]-thymidine incorporation, Drug + N-CAM” value is on record as 60 ± 12 % SFM Ctrl. The “[3H]-thymidine incorporation, Drug alone” value (drug 10 μM, 2×10^5 cells/ml) came out at 107 ± 10 % SFM Ctrl.

Regarding `C=C[C@@]1(C)CC(=O)[C@]2(O)[C@@]3(C)[C@@H](O)CCC(C)(C)[C@@H]3[C@H](O)[C@H](OC(C)=O)[C@@]2(C)O1` [Forskolin, forskolin], the “[3H]-thymidine incorporation, Drug alone” value runs as follows: (drug 1 μM, 2×10^5 cells/ml) 73 ± 2 % SFM Ctrl; (drug 10 μM, 2×10^5 cells/ml) 32 ± 6 % SFM Ctrl. For the same molecule, where the note is “drug alone, astrocyte cultures”, the “effect of drug on astrocyte proliferation (in words)” value is given as “blocks proliferation of astrocytes in culture”.

In the case of `C[C@]12O[C@H](C[C@]1(O)C(=O)O)n1c3ccccc3c3c4c(c5c6ccccc6n2c5c31)CNC4=O` [K252b], the “effect of drug on the ability of N-CAM to inhibit astrocyte proliferation (in words)” value is given as “allowed the astrocytes cells to grow normally”. Moreover, for the setting “drug 100 nM plus N-CAM 2 μg/ml”, the “[3H]-thymidine incorporation, Drug + N-CAM” value is given as 85 ± 5 % SFM Ctrl. In addition, the “[3H]-thymidine incorporation, Drug alone” value (drug 100 nM, 2×10^5 cells/ml) worked out at 98 ± 17 % SFM Ctrl. Where the note is “drug 200 nM plus N-CAM 2 μg/ml”, the “[3H]-thymidine incorporation, Drug + N-CAM” value is given as 64 ± 1 % SFM Ctrl. Besides, the “[3H]-thymidine incorporation, Drug alone” value (drug 200 nM, 2×10^5 cells/ml) was determined as 78 ± 15 % SFM Ctrl.

Regarding `COC(=O)C=Cc1cc(O)ccc1O` [Methyl 2,5-dihydroxycinnamate, methyl 2,5-dihydroxycinnamate], the “Drug + Ig3” value (drug 0.25 μg/ml plus Ig3 2 μg/ml (Table 5)) is given as 59 % of SFM Control. Moreover, where the note is “drug 0.25 μg/ml plus N-CAM 2 μg/ml (Table 5)”, the “Drug + N-CAM” value was 60 % of SFM Control. Where the note is “drug 0.25 μg/ml, 2×10^5 cells/ml”, the “Drug Alone” value is recorded as 65 % of SFM Control.

With `CCCCCCCCCCCCCC(=O)O[C@@H]1[C@@H](C)[C@@]2(O)[C@@H](C=C(CO)C[C@]3(O)C(=O)C(C)=C[C@@H]23)[C@@H]2C(C)(C)[C@]12OC(C)=O` [PMA], the “effect of drug on astrocyte proliferation (in words)” value is “strong mitogenic response”. The “[3H]-thymidine incorporation, Drug alone” value (drug 10 nM, 2×10^5 cells/ml) was 138 ± 16 % SFM Ctrl. Also, where the note is “drug 100 nM plus N-CAM 2 μg/ml”, the “[3H]-thymidine incorporation, Drug + N-CAM” value worked out at 228 % SFM Ctrl. Also, the “[3H]-thymidine incorporation, Drug alone” value (drug 100 nM, 2×10^5 cells/ml) amounted to 268 ± 34 % SFM Ctrl.

With Pertussis Toxin, the “effect of drug on astrocyte proliferation (in words)” value is “slightly inhibited astrocyte proliferation” and the “effect of drug on the ability of N-CAM to inhibit astrocyte proliferation (in words)” value is “N-CAM was still able to inhibit proliferation”. For the setting “drug 1 μg/ml plus N-CAM 2 μg/ml”, the “[3H]-thymidine incorporation, Drug + N-CAM” value was 57 ± 13 % SFM Ctrl. Further, for the setting “drug 1 μg/ml, 2×10^5 cells/ml”, the “[3H]-thymidine incorporation, Drug alone” value was 67 ± 13 % SFM Ctrl. For the same molecule, the “[3H]-thymidine incorporation, Drug + N-CAM” value (drug .5 μg/ml plus N-CAM 2 μg/ml) is given as 53 ± 9 % SFM Ctrl. Moreover, under “drug .5 μg/ml, 2×10^5 cells/ml”, the “[3H]-thymidine incorporation, Drug alone” value was found to be 74 ± 20 % SFM Ctrl.

For “bFGF: basic fibroblast growth factor, Upstate Biotechnology Incorporated”, for the setting “20 ng/ml bFGF, n=12”, the “proliferation as compared to cultures in SFM” value was 347±56%.

As for calphostin C, the “effect of drug on astrocyte proliferation (in words)” value is on record as “inhibits proliferation”. For the same molecule, the “[3H]-thymidine incorporation, Drug alone” value (drug 0.1 μM, 2×10^5 cells/ml) was 111 ± 35 % SFM Ctrl. Besides, the “[3H]-thymidine incorporation, Drug alone” value (drug 0.5 μM, 2×10^5 cells/ml) was found to be 54 ± 35 % SFM Ctrl.

Take mastoparan: the “effect of drug on astrocyte proliferation (in words)” value is “stimulated astrocyte proliferation” and the “effect of drug on the ability of N-CAM to inhibit astrocyte proliferation (in words)” value is “not inhibited by the concentration of N-CAM used”. Moreover, the “Drug + Ig3” value (drug 50 μM plus Ig3 2 μg/ml (Table 5)) is recorded as 192.5 % of SFM Control. Moreover, the “[3H]-thymidine incorporation, Drug + N-CAM” value (drug 50 μM plus N-CAM 2 μg/ml (Table 4)) is reported as 205 ± 30 % SFM Ctrl. Besides, the “Drug + N-CAM” value (drug 50 μM plus N-CAM 2 μg/ml (Table 5)) was 202.5 % of SFM Control. The “[3H]-thymidine incorporation, Drug alone” value (drug 50 μM, 2×10^5 cells/ml (Table 4)) came out at 213 ± 47 % SFM Ctrl. Moreover, the “Drug Alone” value (drug 50 μM, 2×10^5 cells/ml) is 210 % of SFM Control.

B1: N-CAM purified from embryonic chick brain: N-CAM purified from embryonic chick brain, which binds to rodent N-CAM (protein, UniProt P13590 20-1091, looked up)
Neural cell adhesion molecule …: LQVDIVPSQGEISVGESKFFLCQVAGEAKYKDISWFSPNGEKLTPNQQRISVVRNDDFSSTLTIYNANIDDAGIYKCVVSSVEEGDSEATVNVKIFQKLMFKNAPTPQEFKEGDDAVIVCDVVSSLPPTIIWKHKGRDVMLKKDVRFIVLSNNYLQIRGIKKTDEGTYRCEGRILARGEINFKDIQVIVNVPPSVRARQSTMNATANLSQSVTLACDADGFPEPTMTWTKDGEPIEQEDNEEKYSFNYDGSELIIKKVDKSDEAEYICIAENKAGEQDATIHLKVFAKPKITYVENKTAMELEDQITLTCEASGDPIPSITWKTSTRNISNEEKTLDGRIVVRSHARVSSLTLKEIQYTDAGEYVCTASNTIGQDSQAMYLEVQYAPKLQGPVAVYTWEGNQVNITCEVFAYPSAVISWFRDGQLLPSSNYSNIKIYNTPSASYLEVTPDSENDFGNYNCTAVNRIGQESSEFILVQADTPSSPSIDRVEPYSSTARVEFDEPEATGGVPILKYKAEWRALGEGEWHSRLYDAKEANVEGTITISGLKPETTYSVRLSAVNGKGVGEISLPSDFKTQPVREPSAPKLEGQMGEDGNSIKVNVIKQDDGGSPIRHYLIKYKAKHSSEWKPEIRLPSGIDHVMLKSLDWNAEYEVYVIAENQQGKSKPAHYAFRTSAQPTVIPASTSPTSGLGTAAIVGILIVIFVLLLVAVDVTCYFLNKCGLLMCIAVNLCGKSGPGAKGKDMEEGKAAFSKDESKEPIVEVRTEEERTPNHDGGKHTEPNETTPLTEPEHTADTAATVEDMLPSVTTGTTNSDTITETFATAQNSPTSETTTLTSSIAPPATAIPDSNAMSPGQATPAKAGASPVSPPPPSSTPKVAPLVDLSDTPSSAPATNNLSSSVLSNQGAVLSPSTVANMAETSKAAAGNKSAAPTPANLTSPPAPSEPKQEVSSTKSPEKEAAQPSTVKSPTETAKNPSNPKSEAASGGTTNPSQNEDFKMDEGTFKTPDIDLAKDVFAALGTTTPASVASGQARELASSTADSSVPAAPAKTEKTPVEDKSEVQATEIRHLQQK
As for B1, the “effect on astrocyte proliferation (in words)” value (added to astrocyte cultures in SFM) is listed as “also inhibited proliferation”.

B2: N-CAM treated with neuraminidase: purified N-CAM treated with neuraminidase to remove sialic acid (protein, UniProt P13596 20-858, looked up)
Neural cell adhesion molecule …: LQVDIVPSQGEISVGESKFFLCQVAGDAKDKDISWFSPNGEKLSPNQQRISVVWNDDDSSTLTIYNANIDDAGIYKCVVTAEDGTQSEATVNVKIFQKLMFKNAPTPQEFKEGEDAVIVCDVVSSLPPTIIWKHKGRDVILKKDVRFIVLSNNYLQIRGIKKTDEGTYRCEGRILARGEINFKDIQVIVNVPPTVQARQSIVNATANLGQSVTLVCDADGFPEPTMSWTKDGEPIENEEEDDEKHIFSDDSSELTIRNVDKNDEAEYVCIAENKAGEQDASIHLKVFAKPKITYVENQTAMELEEQVTLTCEASGDPIPSITWRTSTRNISSEEKASWTRPEKQETLDGHMVVRSHARVSSLTLKSIQYTDAGEYICTASNTIGQDSQSMYLEVQYAPKLQGPVAVYTWEGNQVNITCEVFAYPSATISWFRDGQLLPSSNYSNIKIYNTPSASYLEVTPDSENDFGNYNCTAVNRIGQESLEFILVQADTPSSPSIDRVEPYSSTAQVQFDEPEATGGVPILKYKAEWKSLGEEAWHSKWYDAKEANMEGIVTIMGLKPETRYAVRLAALNGKGLGEISAATEFKTQPVREPSAPKLEGQMGEDGNSIKVNLIKQDDGGSPIRHYLVKYRALASEWKPEIRLPSGSDHVMLKSLDWNAEYEVYVVAENQQGKSKAAHFVFRTSAQPTAIPANGSPTAGLSTGAIVGILIVIFVLLLVVMDITCYFLNKCGLLMCIAVNLCGKAGPGAKGKDMEEGKAAFSKDESKEPIVEVRTEEERTPNHDGGKHTEPNETTPLTEPEKGPVETKSEPQESEAKPAPTEVKTVPNEATQTKENESKA
modifications: desialylated by neuraminidase
notes: purified N-CAM treated with neuraminidase to remove sialic acid
In the case of B2, the “[3H]-thymidine incorporation vs. SFM control” value (2 μg/ml, n=2) is reported as 24±4%.

These data come from patent publication US5985822A, “Inhibition of glial cell proliferation with N-CAM homophilic peptides” (The Scripps Research Institute, priority 1995, dated 1999).
